Test results: ChEMBL document CHEMBL1136657, “Novel ether derivatives of mannopeptimycin glycopeptide antibiotic” (2003)
In brackets after ≈: the same amount, converted by molar mass.

How the values were obtained:
Format in all cases: functional
Enterococcus sp. = assay: Minimum inhibitory concentration against Enterococcus species. was determined
Staphylococcus aureus = assay: Minimum inhibitory concentration against Staphylococcus aureus was determined
Streptococcus = assay: Minimum inhibitory concentration against Streptococcus species. was determined

| MIC (Enterococcus sp.) [µg/mL] | MIC (Staphylococcus aureus) [µg/mL] | MIC (Streptococcus) [µg/mL] | Compound |
| --- | --- | --- | --- |
| > 128 | 8 (≈ 5.86 µM) | 8 (≈ 5.86 µM) | CC(C)CC(=O)O[C@@H]1[C@@H](O[C@H]2[C@H](O)[C@H](O)[C@@H](Oc3ccc(C[C@H]4NC(=O)[C@H]([C@@H](C)c5ccccc5)NC(=O)CNC(=O)[C@H](CO)NC(=O)[C@@H]([C@@H](O)[C@@H]5CN=C(N)N5[C@H]5O[C@H](O)[C@@H](O)[C@H](O)[C@@H]5O)NC(=O)[C@H]([C@@H](O)[C@@H]5CN=C(N)N5)NC4=O)cc3)O[C@@H]2CO)O[C@H](CO)[C@@H](O)[C@@H]1O |
| 128 (≈ 99.9 µM) | > 128 | 32 (≈ 25 µM) | C[C@@H](c1ccccc1)[C@@H]1NC(=O)CNC(=O)[C@H](CO)NC(=O)[C@@H]([C@@H](O)[C@@H]2CN=C(N)N2[C@H]2O[C@H](O)[C@@H](O)[C@H](O)[C@@H]2O)NC(=O)[C@H]([C@@H](O)[C@@H]2CN=C(N)N2)NC(=O)[C@@H](Cc2ccc(O[C@H]3O[C@H](CO)[C@@H](O[C@H]4O[C@H](CO)[C@@H](O)[C@H](O)[C@@H]4O)[C@H](O)[C@@H]3O)cc2)NC1=O |
| 64 (≈ 46.9 µM) | 8 (≈ 5.86 µM) | 8 (≈ 5.86 µM) | CC(C)CC(=O)O[C@@H]1[C@H](O)[C@@H](O[C@H]2[C@H](O)[C@H](O)[C@@H](Oc3ccc(C[C@H]4NC(=O)[C@H]([C@@H](C)c5ccccc5)NC(=O)CNC(=O)[C@H](CO)NC(=O)[C@@H]([C@@H](O)[C@@H]5CN=C(N)N5[C@H]5O[C@H](O)[C@@H](O)[C@H](O)[C@@H]5O)NC(=O)[C@H]([C@@H](O)[C@@H]5CN=C(N)N5)NC4=O)cc3)O[C@@H]2CO)O[C@H](CO)[C@H]1O |
